Records with an inconclusive call do not appear.

In this experiment the target is Virion infectivity factor (Human immunodeficiency virus type 1 group M subtype B (isolate BH10)) + Virion infectivity factor (Human immunodeficiency virus type 1 group M subtype B (isolate BRU/LAI)) + Virion infectivity factor (Human immunodeficiency virus type 1 group M subtype B (isolate PCV12)) + Virion infectivity factor (Human immunodeficiency virus type 1 group M subtype B (isolate HXB2)) + DNA dC->dU-editing enzyme APOBEC-3G (Homo sapiens) (UniProt P69720+P69721+P69722+P69723+Q9HC16). Description: inhibitors of Vif binding to APOBEC3G peptide, primary screen, biochemical, TR-FRET, GST-Vif 1-94, biotin-A3G peptide, dose response retest (AID 1117319;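 also: Vif residues 1-94 fused to GST binding biotinylated APOBEC3G peptide 110-148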). (In general: Time-resolved FRET reads energy transfer from a long-lived donor to a nearby acceptor.)
As to `C/C(=N\Nc1ccc(Cl)c(C(=O)O)c1)c1ccc[nH]1`, the half-maximal inhibitory concentration (IC50) (usually the concentration needed to halve the response being measured) was 8.87 µM.
To `Cc1ccc(N2CCN(c3ccc(C)cc3)C2c2ccccn2)cc1` belongs 75.8 µM; to `Cc1cccc(C)c1NC(=O)CSc1nnc(-c2ccco2)c(-c2ccco2)n1`, 2.05 µM; to `COC(=O)c1ccccc1NC(=O)C1CCCC1`, 0.55 µM.
With `O=C(CCCN1C(=O)/C(=C\c2ccco2)SC1=S)Nc1cccc2ccccc12` the figure was 2.56 µM; with `CN(C)[C@@H]1C(=O)C(C(=O)NCN2CCCC2)=C(O)[C@@]2(O)C(=O)C3=C(O)c4c(O)cccc4[C@@](C)(O)C3CC12` (stereo not given in full), 0.33 µM.
Consider `CCC(C(=O)OCC(=O)Nc1ccc(SC(F)F)cc1)c1ccccc1` (stereo not given), for which the IC50 is 83.2 µM.
For the compound `CCN(C(=O)c1coc(=O)c(Br)c1)c1ccc2c(c1)OCO2`, the IC50 was 1.06 µM.
With `CCCCCC#CCC#CCC#CCC#CCCCC(=O)O` the figure was 0.86 µM.
To `O=C1CCCC(O)=C1N=Nc1ccc(C(=O)O)cc1` belongs 2.72 µM; to `C/C(N)=C(/C#N)C(=O)CSc1nnc(Nc2c(C)cccc2C)s1`, 17.5 µM.
To `O=C(COC(=O)c1cc(-c2ccco2)nc2ccccc12)NCc1ccc2c(c1)OCO2` belongs 12.5 µM.
On to `CCCn1nc(C(=O)Nc2cc(C(=O)OC)ccc2C)c2ccccc2c1=O`, for which the IC50 is 86.5 µM.
As to `Cc1cccc(/C=C(\C(=O)O)c2ccc(S(=O)(=O)N3CCCC3)s2)c1`, the 50% inhibitory concentration (IC50) was 22 µM.
To `O=C(Nc1nc(-c2ccco2)c(-c2ccco2)s1)c1ccco1` belongs 32.2 µM; to `COc1ccc(OC)c(NC(=O)NCc2ccc(F)cc2)c1`, 58.5 µM; to `Cc1ccc2cc(CN(Cc3nnnn3Cc3ccco3)CC3CCCO3)c(=O)[nH]c2c1C` (stereo not given), 34.4 µM.
With `Nc1nc(-c2ccco2)c(-c2ccco2)s1` the figure was 0.83 µM.
Regarding `COc1ccc(N2CCN(c3nc4ccccc4nc3NS(=O)(=O)c3ccccc3)CC2)cc1`, the IC50 is 66.6 µM.
To `O=c1cc(-c2ccc(O)cc2)oc2c(O)c(O)c(O)c(O)c12` belongs 22.1 µM.
In the case of `Cc1ccccc1NC(=O)CSc1nnc(-c2ccco2)c(-c2ccco2)n1`, the IC50 was 1.17 µM.
With `O=[N+]([O-])c1cc(Br)c(O)c(C=Nc2ccc(N3CCOCC3)cc2)c1` the figure was 7.19 µM; with `O=C(O)CCCNc1cc(N2CCC3(CC2)OCCO3)c2noc3c2c1C(=O)c1ccccc1-3`, 0.97 µM; with `Cc1ccc(-c2cc(-c3ccc4c(c3)OCO4)c(C#N)c(N)n2)o1`, 7.11 µM.
Regarding `CC[n+]1ccc(C)c2cc(S(=O)C(F)(F)F)ccc21` (stereo not given), the IC50 was 8.8 µM.
With `Cc1cc(O)c(C(C)C)cc1N=Cc1ccc([N+](=O)[O-])cc1` the figure was 19 µM.
As to `O=C(O)Cc1ccc(N=Nc2c(O)c(C(=O)O)cc3ccccc23)cc1`, the concentration for half-maximal inhibition (IC50) was 10.5 µM.
Turning to `CC1=CC(C)(C)Nc2ccc(OC(=O)c3cccnc3)cc21`, the IC50 was 30.4 µM.
To `O=C(N/N=C/C(Br)=C/c1ccccc1)c1cc(-c2ccco2)[nH]n1` belongs 5.12 µM; to `N=C(N)c1ccc(N=Nc2c(O)ccc3c2[nH]c2ccccc23)cc1`, 3.87 µM; to `CN(CCC#N)C(=O)COC(=O)c1c2c(nc3ccccc13)/C(=C\c1ccco1)CC2`, 1.66 µM.
To `COCCN=c1scc(-c2cccs2)n1/N=C/c1ccc(O)c(O)c1O` belongs 2.37 µM; to `CCOC(=O)Cc1cc(=O)n2[nH]c(C)cc2n1`, 75.3 µM; to `O=C(Cc1ccccc1)NC(Nc1ccccc1)C(Cl)(Cl)Cl` (stereo not given), 27.9 µM.
With `CC[n+]1c(/C=C2\C=C(C)CC(C)(C)C2)sc2ccccc21` the figure was 57.9 µM.
With `COc1cccc(-n2c(/C=C/c3ccc(O)c(O)c3)nc3ccccc3c2=O)c1`, the IC50 was 10.7 µM.
With `COc1cccc(-c2nn(C)c3sc(C(=O)Nc4ccc5c(c4)OCCO5)cc23)c1` the figure was 51.6 µM; with `Cc1c(C(=O)O)cccc1-n1c(C)cc(/C=N/Nc2ccc([N+](=O)[O-])cn2)c1C`, 12.6 µM.
With `O=C1NC(c2ccc(Br)cc2)=N/C1=C/c1ccco1` the figure was 7.41 µM.
To `CCn1c(SCC(=O)OC)nc2sc3c(c2c1=O)CCC3` belongs 12.7 µM; to `COc1ccc2c(c1)c(=O)oc1cc(OCC(=O)N3CCC(C)CC3)ccc12`, 54.6 µM.
As to `Cc1cc(C)c2c(=N)c3ccccc3n(CCCCCCCCn3c4ccccc4c(=N)c4c(C)cc(C)nc43)c2n1`, the concentration for half-maximal inhibition (IC50) was 1.46 µM.
To `CN1CCN(C2=C(Cl)C(=O)c3ccccc3C2=O)CC1` belongs 4.42 µM; to `Oc1ccc(N=Cc2sc3ccccc3c2Cl)cc1`, 3.11 µM; to `CC1=CC(=Nc2c(C)n(C)n(-c3ccccc3)c2=O)C=CC1=O`, 5.02 µM.
Turning to `O=C(Nc1nc(-c2ccco2)c(-c2ccco2)s1)C1CCC1`, the IC50 was 1.93 µM.
Take `CN(C)S(=O)(=O)c1cccc(NC(=S)N/N=C/c2ccc(O)c(O)c2O)c1`: the IC50 was 1.88 µM.
In the case of `Cc1ccc2[nH]c(=O)c(C3C(C#N)=C(N)Oc4c3ccc3cccnc43)cc2c1` (stereo not given), the IC50 was 24.3 µM.
With `CCOC(=O)C1=C(C)N=c2s/c(=C/c3ccco3)c(=O)n2C1c1cccc(OC)c1` (stereo not given) the figure was 33 µM.
To `Cc1ccc(Cn2c(=S)[nH]c3ccc(N4CCOCC4)cc3c2=O)o1` belongs 0.61 µM.
To `CN(C)[C@@H]1C(=O)C(C(N)=O)=C(O)[C@@]2(O)C(=O)C3=C(O)c4c(O)ccc(Cl)c4[C@@](C)(O)C3C[C@@H]12` (stereo not given in full) belongs 7.02 µM.
With `CCN(CC)S(=O)(=O)c1cccc(C(=O)N/N=C/c2ccc(O)c(O)c2O)c1`, the IC50 is 3.48 µM.
For the compound `CNCc1ccccc1Sc1ccc(O)c(O)c1`, the IC50 was 2.64 µM.
With `COC(=O)Cn1c(CCC(=O)O)ccc1-c1ccccc1` the figure was 12.5 µM; with `S=c1[nH]nc(COc2ccc3c(c2)OCO3)n1-c1ccccc1`, 48.3 µM.
With `COc1ccc(NC(=S)NCCc2ccccc2OC)c(OC)c1`, the IC50 was 7.02 µM.
To `O=C(CSc1nc2cc([N+](=O)[O-])ccc2n1-c1ccccc1)NCc1ccc2c(c1)OCO2` belongs 46.6 µM; to `Cc1cc(F)ccc1S(=O)(=O)Nc1ccccc1C(=O)Nc1ccc2[nH]c(=O)[nH]c2c1`, 78 µM; to `CNc1ccccc(-c2ccc3cc4c(cc3n2)OCO4)c1=O`, 16.5 µM.
With `Oc1ccc(C[C@H]2NCCc3cc(O)c(O)cc32)cc1O` the figure was 9.77 µM; with `Cc1c(C(=O)N2CCN(c3ccccc3F)CC2)sc2nc(-c3ccccc3)cn12`, 93 µM.
To `O=C(NCCCO)c1ccc2nc(-c3ccco3)c(-c3ccco3)nc2c1` belongs 0.72 µM; to `Cc1ccc(/C=C/C(=O)Nc2cccc(S(=O)(=O)N3CCOCC3)c2)o1`, 20.9 µM; to `Cn1cccc1/C=C1\CCC/C(=C\c2cccn2C)C1=O`, 3.09 µM.
`Cc1nc2cc(N=NC3=C(O)CCCC3=O)ccc2s1`: the half-inhibitory concentration (IC50) was 1.28 µM.
To `COc1ccc(C(=O)n2nc(-c3ccc(Cl)cc3)nc2N)cc1OC` belongs 70.9 µM; to `Cc1cc(C(=O)CSc2nnnn2C)c(C)n1CCc1ccc(Cl)cc1`, 29.4 µM; to `O=C1NC(=S)S/C1=C\C=C\c1ccc([N+](=O)[O-])o1`, 1.84 µM.
With `CNC(=O)[C@@H]1C[C@H]1[C@@H](NC(=O)OCc1ccccc1)c1ccccc1` the figure was 16.6 µM; with `CCOC(=O)C1=C(C)N=C2SC(C(=O)OC)=CC(=O)N2C1c1cc(OC)c(OC)c(OC)c1` (stereo not given), 11 µM.

(Values after PubChem BioAssay AID1117319 (Southern Research Institute, 2015).)
